Measurements reported in patent publication US20240150375A1, “MACROCYCLIC COMPOUNDS AND USES THEREOF” (Theseus Pharmaceuticals, Inc., priority 2021, published 2024).

Columns and labels:
[1] = biological target: Ba/F3 EGFR-Del19/T790M/C797S (Homo sapiens, UniProt P00533, T790M/C797S, cells depend on it, form not given); test: Ba/F3 viability assay (CellTiter-Glo), EGFR-Del19/T790M/C797S (DTC); format: cell-based; conditions: Ba/F3 EGFR-Del19/T790M/C797S anti-proliferation; read-out: BAF3 DTC IC50
Chain of Ba/F3 EGFR-Del19/T790M/C797S (P00533 with tags, fused parts or gaps DEL746-750/T790M/C797S, form open): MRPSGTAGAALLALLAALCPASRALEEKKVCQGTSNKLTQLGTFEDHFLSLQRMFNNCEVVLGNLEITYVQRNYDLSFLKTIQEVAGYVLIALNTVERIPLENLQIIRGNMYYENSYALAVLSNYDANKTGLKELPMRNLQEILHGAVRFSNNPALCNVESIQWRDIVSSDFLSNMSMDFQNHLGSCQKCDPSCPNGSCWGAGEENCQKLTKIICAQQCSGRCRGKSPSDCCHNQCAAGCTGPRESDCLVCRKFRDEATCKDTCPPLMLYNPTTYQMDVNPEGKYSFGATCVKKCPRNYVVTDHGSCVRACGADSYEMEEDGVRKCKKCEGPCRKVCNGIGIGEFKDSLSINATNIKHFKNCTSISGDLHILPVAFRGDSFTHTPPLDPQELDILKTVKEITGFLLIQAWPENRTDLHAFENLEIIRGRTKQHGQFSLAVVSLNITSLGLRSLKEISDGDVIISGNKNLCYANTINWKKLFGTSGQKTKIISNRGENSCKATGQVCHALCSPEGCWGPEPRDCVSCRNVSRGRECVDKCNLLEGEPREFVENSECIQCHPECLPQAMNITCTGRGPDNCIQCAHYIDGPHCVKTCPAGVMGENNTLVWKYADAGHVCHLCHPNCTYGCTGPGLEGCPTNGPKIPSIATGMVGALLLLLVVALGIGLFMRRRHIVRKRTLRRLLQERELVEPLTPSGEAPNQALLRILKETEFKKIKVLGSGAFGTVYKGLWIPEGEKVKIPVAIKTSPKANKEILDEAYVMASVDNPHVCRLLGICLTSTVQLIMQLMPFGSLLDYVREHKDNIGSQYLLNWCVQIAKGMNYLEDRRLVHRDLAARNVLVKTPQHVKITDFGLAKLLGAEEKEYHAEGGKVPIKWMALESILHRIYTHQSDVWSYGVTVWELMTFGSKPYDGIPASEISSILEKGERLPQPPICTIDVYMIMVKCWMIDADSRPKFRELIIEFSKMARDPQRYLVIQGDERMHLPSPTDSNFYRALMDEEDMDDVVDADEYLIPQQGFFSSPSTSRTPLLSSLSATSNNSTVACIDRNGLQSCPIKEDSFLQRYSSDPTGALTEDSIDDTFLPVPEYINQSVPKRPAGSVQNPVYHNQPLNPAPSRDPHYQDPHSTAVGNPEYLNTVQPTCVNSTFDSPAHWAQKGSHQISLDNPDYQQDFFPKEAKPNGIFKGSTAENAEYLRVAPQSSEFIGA
Description: (§1) Inhibition of cell proliferation can be studied using Ba/F3 viability assays, including the Promega CellTiter-Glo cell viability assay. This assay can be used to study the effect of compounds described herein in the following assays: (1) Ba/F3 Parental; (2) Ba/F3 EGFR-Del19/T790M; (3); Ba/F3 EGFR-Del19/C797S; and (4) Ba/F3 EGFR-Del119/T790M/C797S.
(§2) One hundred thirty six compounds were studied using the kinase (EGFR) and BA/F3 assays described herein, with more than 60% of the tested compounds providing IC50<50 nM values in all six assays. Accordingly, compounds of the invention are a new general class of kinase inhibitors, including potent inhibitors of EGFR mutants.
(§3) Exemplary kinase inhibition (Kinase) and anti-proliferation activity (Ba/F3) data are shown in Table 1 for certain compounds of the invention and are categorized according to the below legend.

EGFR^L858R/T790M = EGFR^L858R/T790M (Homo sapiens, UniProt P00533, L858R/T790M); test: HTRF KinEASE-TK in vitro kinase assay, EGFR L858R/T790M (LT); format: biochemical; conditions: EGFR L858R/T790M kinase inhibition
Chain of EGFR^L858R/T790M (P00533 25-1210 T790M/L858R): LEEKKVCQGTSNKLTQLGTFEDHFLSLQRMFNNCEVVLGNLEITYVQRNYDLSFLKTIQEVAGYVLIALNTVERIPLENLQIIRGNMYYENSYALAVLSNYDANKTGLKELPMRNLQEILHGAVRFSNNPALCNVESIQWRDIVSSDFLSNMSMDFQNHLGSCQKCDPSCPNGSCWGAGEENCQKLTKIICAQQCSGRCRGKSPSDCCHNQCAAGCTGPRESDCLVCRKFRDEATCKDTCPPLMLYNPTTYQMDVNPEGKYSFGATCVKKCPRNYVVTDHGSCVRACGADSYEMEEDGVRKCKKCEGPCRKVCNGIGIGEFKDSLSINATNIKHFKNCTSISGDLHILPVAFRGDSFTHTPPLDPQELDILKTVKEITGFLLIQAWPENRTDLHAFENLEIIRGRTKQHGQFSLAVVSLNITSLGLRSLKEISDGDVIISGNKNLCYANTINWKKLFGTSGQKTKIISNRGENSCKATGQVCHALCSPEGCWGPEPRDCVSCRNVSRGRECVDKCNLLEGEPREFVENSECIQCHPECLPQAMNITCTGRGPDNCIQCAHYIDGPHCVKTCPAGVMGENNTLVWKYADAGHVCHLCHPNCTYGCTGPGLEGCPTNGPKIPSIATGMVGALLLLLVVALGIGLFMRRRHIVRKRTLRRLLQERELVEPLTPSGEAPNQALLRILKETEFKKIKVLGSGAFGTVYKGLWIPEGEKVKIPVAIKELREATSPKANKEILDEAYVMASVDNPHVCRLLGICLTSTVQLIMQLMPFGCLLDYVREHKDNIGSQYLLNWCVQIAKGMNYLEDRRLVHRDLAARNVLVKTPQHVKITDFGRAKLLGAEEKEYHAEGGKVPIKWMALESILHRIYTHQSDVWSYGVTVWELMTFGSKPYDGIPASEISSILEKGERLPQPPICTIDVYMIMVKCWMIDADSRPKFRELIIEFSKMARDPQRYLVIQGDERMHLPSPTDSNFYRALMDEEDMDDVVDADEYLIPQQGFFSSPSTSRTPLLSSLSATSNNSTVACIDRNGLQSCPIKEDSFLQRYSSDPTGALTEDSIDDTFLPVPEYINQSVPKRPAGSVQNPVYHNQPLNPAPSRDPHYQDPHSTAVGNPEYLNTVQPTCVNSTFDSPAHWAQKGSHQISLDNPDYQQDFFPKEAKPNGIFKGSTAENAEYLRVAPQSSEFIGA
Description: (§4) The biological activity of compounds described herein can be studied according to standard methods known in the art. Methods can be used to study inhibition of EGFR, including mutant forms of EGFR comprising L858R, T790M, C797S, and/or Del19 mutations, or any combination thereof (e.g., L858R single, double, or triple mutants). Exemplary, non-limiting methods are described herein.
(§5) Assays using an in vitro kinase assay kit (HTRF KinEASE-TK kit) can be used to study the inhibitory activity of compounds described herein with respect to EGFR mutants such as ECFR^L858R, EGFR^L858R/T790M, and EGFR^L858R/T790M/C797S.
as §2, §3

Ba/F3 EGFR-Del19/C797S = Ba/F3 EGFR-Del19/C797S (Homo sapiens, UniProt P00533, C797S, cells depend on it, form not given); test: Ba/F3 viability assay (CellTiter-Glo), EGFR-Del19/C797S (DC); format: cell-based; conditions: Ba/F3 EGFR-Del19/C797S anti-proliferation; read-out: BAF3 DC IC50
Chain of Ba/F3 EGFR-Del19/C797S (P00533 with tags, fused parts or gaps DEL746-750/C797S, form open): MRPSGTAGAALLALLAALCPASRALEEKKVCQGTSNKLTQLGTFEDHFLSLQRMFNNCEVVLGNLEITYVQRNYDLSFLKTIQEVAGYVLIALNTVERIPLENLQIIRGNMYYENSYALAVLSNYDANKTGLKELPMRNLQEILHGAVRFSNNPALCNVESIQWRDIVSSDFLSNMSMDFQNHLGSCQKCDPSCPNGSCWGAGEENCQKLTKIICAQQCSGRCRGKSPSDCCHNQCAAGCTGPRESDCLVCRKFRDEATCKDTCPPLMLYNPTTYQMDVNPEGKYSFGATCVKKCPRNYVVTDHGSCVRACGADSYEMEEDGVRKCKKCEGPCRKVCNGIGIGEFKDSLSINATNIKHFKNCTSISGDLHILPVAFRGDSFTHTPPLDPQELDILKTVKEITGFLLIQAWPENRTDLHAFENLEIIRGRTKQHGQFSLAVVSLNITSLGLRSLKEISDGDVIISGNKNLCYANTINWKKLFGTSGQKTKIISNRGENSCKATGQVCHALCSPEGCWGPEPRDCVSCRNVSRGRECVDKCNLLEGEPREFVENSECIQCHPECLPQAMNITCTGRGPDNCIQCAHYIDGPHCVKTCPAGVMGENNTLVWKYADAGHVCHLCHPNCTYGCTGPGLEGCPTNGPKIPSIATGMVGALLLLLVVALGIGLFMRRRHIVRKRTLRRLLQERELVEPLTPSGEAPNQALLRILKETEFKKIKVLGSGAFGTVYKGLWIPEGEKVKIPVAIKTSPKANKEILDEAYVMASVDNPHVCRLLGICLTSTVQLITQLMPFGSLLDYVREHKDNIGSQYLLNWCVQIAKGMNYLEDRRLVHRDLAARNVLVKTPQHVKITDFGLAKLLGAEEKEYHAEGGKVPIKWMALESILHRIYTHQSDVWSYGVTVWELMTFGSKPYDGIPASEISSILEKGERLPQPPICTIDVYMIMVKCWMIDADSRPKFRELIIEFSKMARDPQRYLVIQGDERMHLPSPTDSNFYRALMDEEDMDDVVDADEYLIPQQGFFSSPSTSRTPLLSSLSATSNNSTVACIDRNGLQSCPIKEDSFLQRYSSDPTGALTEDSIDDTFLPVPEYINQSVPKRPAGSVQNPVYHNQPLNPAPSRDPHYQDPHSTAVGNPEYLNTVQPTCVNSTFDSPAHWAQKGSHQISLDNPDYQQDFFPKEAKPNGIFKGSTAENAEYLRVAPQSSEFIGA
Description: as §1, §2, §3

Ba/F3 EGFR-Del19/T790M = Ba/F3 EGFR-Del19/T790M (Homo sapiens, UniProt P00533, T790M, cells depend on it, form not given); test: Ba/F3 viability assay (CellTiter-Glo), EGFR-Del19/T790M (DT); format: cell-based; conditions: Ba/F3 EGFR-Del19/T790M anti-proliferation; read-out: BAF3 DT IC50
Chain of Ba/F3 EGFR-Del19/T790M (P00533 with tags, fused parts or gaps DEL746-750/T790M, form open): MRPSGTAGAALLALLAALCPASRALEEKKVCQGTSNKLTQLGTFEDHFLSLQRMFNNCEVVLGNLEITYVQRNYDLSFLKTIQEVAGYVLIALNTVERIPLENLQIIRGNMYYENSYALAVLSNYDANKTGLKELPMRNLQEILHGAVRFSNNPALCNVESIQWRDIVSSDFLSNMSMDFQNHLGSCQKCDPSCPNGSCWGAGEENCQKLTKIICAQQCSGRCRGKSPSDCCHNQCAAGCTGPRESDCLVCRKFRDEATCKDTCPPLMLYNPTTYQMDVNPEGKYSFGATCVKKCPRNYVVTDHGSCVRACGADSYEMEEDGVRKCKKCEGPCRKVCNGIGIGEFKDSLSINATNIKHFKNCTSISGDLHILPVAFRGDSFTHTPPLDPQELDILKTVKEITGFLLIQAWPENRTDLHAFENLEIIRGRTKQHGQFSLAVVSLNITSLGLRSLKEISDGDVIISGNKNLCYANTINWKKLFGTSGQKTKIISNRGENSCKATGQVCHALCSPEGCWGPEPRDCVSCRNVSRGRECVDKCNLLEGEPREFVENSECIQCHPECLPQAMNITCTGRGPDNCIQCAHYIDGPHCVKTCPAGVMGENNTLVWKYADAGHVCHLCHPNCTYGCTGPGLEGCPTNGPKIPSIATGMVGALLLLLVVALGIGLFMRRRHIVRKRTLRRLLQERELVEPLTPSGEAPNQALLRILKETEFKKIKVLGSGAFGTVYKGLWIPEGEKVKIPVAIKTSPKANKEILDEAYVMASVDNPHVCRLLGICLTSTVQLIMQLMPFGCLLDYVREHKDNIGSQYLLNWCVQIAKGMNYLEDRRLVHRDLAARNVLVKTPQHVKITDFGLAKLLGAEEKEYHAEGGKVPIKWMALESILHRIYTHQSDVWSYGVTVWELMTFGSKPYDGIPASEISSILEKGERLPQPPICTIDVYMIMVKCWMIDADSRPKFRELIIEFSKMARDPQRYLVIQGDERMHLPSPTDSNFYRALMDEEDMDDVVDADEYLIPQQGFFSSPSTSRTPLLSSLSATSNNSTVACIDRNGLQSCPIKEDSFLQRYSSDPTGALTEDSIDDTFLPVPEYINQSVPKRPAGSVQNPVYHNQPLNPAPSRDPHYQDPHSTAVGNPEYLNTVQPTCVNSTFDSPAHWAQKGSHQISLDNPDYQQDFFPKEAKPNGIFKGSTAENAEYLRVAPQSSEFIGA
Description: as §1, §2, §3

EGFR^L858R = EGFR^L858R (Homo sapiens, UniProt P00533, L858R); test: HTRF KinEASE-TK in vitro kinase assay, EGFR L858R (L); format: biochemical; conditions: EGFR L858R kinase inhibition
Description: as §4, §5, §2, §3

EGFR^L858R/T790M/C797S = EGFR^L858R/T790M/C797S (Homo sapiens, UniProt P00533, C797S/L858R/T790M); test: HTRF KinEASE-TK in vitro kinase assay, EGFR L858R/T790M/C797S (LTC); format: biochemical; conditions: EGFR L858R/T790M/C797S kinase inhibition
Description: as §4, §5, §2, §3

Work on `CC(C)n1cc(-c2cnc3cc2O[C@@H](C)CCOc2c(cnn2C)-c2nccc(n2)N3)c(OCC(F)F)n1` [(15)] yielded a GI50 [1] of less than 0.05 µM, an IC50 (EGFR^L858R/T790M) of less than 0.05 µM and a GI50 (Ba/F3 EGFR-Del19/C797S) of less than 0.05 µM. It also gave a GI50 (Ba/F3 EGFR-Del19/T790M) of less than 0.05 µM, an IC50 (EGFR^L858R) of less than 0.05 µM and an IC50 (EGFR^L858R/T790M/C797S) of less than 0.05 µM.
`CCOc1nn(C2CCN(C)CC2F)cc1-c1cnc2cc1O[C@@H](C)CCOc1c(cnn1C)-c1nccc(n1)N2` (stereo partly drawn) [(16)] showed a GI50 [1] of less than 0.05 µM, an IC50 (EGFR^L858R/T790M) of less than 0.05 µM and a GI50 (Ba/F3 EGFR-Del19/C797S) of less than 0.05 µM. The GI50 (Ba/F3 EGFR-Del19/T790M) was less than 0.05 µM, the IC50 (EGFR^L858R) was less than 0.05 µM and the IC50 (EGFR^L858R/T790M/C797S) was less than 0.05 µM.
Work on `CCOc1nn(C2CC2)cc1-c1cnc2cc1O[C@@H](C)CCOc1c(cnn1C)-c1nccc(n1)N2` [(18)] yielded a GI50 [1] of less than 0.05 µM, an IC50 (EGFR^L858R/T790M) of less than 0.05 µM and a GI50 (Ba/F3 EGFR-Del19/C797S) of less than 0.05 µM. The GI50 (Ba/F3 EGFR-Del19/T790M) was less than 0.05 µM, the IC50 (EGFR^L858R) was less than 0.05 µM and the IC50 (EGFR^L858R/T790M/C797S) was less than 0.05 µM.
`CCOc1nn(C2CC2CN2CCOCC2)cc1-c1cnc2cc1O[C@@H](C)CCOc1c(cnn1C)-c1nccc(n1)N2` (stereo partly drawn) [(20)] showed a GI50 [1] of less than 0.05 µM, an IC50 (EGFR^L858R/T790M) of less than 0.05 µM and a GI50 (Ba/F3 EGFR-Del19/C797S) of less than 0.05 µM. For the same molecule, the GI50 (Ba/F3 EGFR-Del19/T790M) was less than 0.05 µM, the IC50 (EGFR^L858R) was less than 0.05 µM and the IC50 (EGFR^L858R/T790M/C797S) was less than 0.05 µM.
For `CCOc1nn(CC(F)F)cc1-c1cnc2cc1O[C@@H](C)CCOc1c(cnn1C)-c1nccc(n1)N2` [(29)], the GI50 [1] was less than 0.05 µM, the IC50 (EGFR^L858R/T790M) was less than 0.05 µM and the GI50 (Ba/F3 EGFR-Del19/C797S) was less than 0.05 µM. The GI50 (Ba/F3 EGFR-Del19/T790M) was less than 0.05 µM, the IC50 (EGFR^L858R) was less than 0.05 µM and the IC50 (EGFR^L858R/T790M/C797S) was less than 0.05 µM.
Work on `CCOc1nn(C2CC3CCC(C2)O3)cc1-c1cnc2cc1O[C@@H](C)CCOc1c(cnn1C)-c1nccc(n1)N2` (stereo partly drawn) [(30)] yielded a GI50 [1] of less than 0.05 µM, an IC50 (EGFR^L858R/T790M) of less than 0.05 µM and a GI50 (Ba/F3 EGFR-Del19/C797S) of less than 0.05 µM. For the same molecule, the GI50 (Ba/F3 EGFR-Del19/T790M) was less than 0.05 µM, the IC50 (EGFR^L858R) was less than 0.05 µM and the IC50 (EGFR^L858R/T790M/C797S) was less than 0.05 µM.
With `C[C@H]1CCOc2c(cnn2C)-c2nccc(n2)Nc2cc(c(-c3cn(C4CC4)nc3OCC(F)(F)F)cn2)O1` [(32)] the GI50 [1] was less than 0.05 µM, the IC50 (EGFR^L858R/T790M) was less than 0.05 µM and the GI50 (Ba/F3 EGFR-Del19/C797S) was less than 0.05 µM. It also gave a GI50 (Ba/F3 EGFR-Del19/T790M) of less than 0.05 µM, an IC50 (EGFR^L858R) of less than 0.05 µM and an IC50 (EGFR^L858R/T790M/C797S) of less than 0.05 µM.
For `CCOc1nn(C2CC(C)(C)OC(C)(C)C2)cc1-c1cnc2cc1O[C@@H](C)CCOc1c(cnn1C)-c1nccc(n1)N2` [(33)], the GI50 [1] was less than 0.05 µM, the IC50 (EGFR^L858R/T790M) was less than 0.05 µM and the GI50 (Ba/F3 EGFR-Del19/C797S) was 0.05 to 0.1 µM. For the same molecule, the GI50 (Ba/F3 EGFR-Del19/T790M) was 0.05 to 0.1 µM, the IC50 (EGFR^L858R) was less than 0.05 µM and the IC50 (EGFR^L858R/T790M/C797S) was less than 0.05 µM.
With `CCOc1nn(-c2ccncc2)cc1-c1cnc2cc1O[C@@H](C)CCOc1c(cnn1C)-c1nccc(n1)N2` [(34)] the GI50 [1] was less than 0.05 µM, the IC50 (EGFR^L858R/T790M) was less than 0.05 µM and the GI50 (Ba/F3 EGFR-Del19/C797S) was less than 0.05 µM. For the same molecule, the GI50 (Ba/F3 EGFR-Del19/T790M) was 0.05 to 0.1 µM, the IC50 (EGFR^L858R) was less than 0.05 µM and the IC50 (EGFR^L858R/T790M/C797S) was less than 0.05 µM.
`CCOc1ncc(C)cc1-c1cnc2cc1O[C@@H](C)CCOc1c(cnn1C)-c1nccc(n1)N2` [(35)] showed a GI50 [1] of 0.1 to 1 µM, an IC50 (EGFR^L858R/T790M) of less than 0.05 µM and a GI50 (Ba/F3 EGFR-Del19/C797S) of no less than 1 µM. For the same molecule, the GI50 (Ba/F3 EGFR-Del19/T790M) was 0.1 to 1 µM, the IC50 (EGFR^L858R) was no less than 1 µM and the IC50 (EGFR^L858R/T790M/C797S) was 0.1 to 1 µM.
`C[C@H]1CCOc2c(cnn2C)-c2nccc(n2)Nc2cc(c(-c3cn(C4CN(C5COC5)C4)nc3OCCF)cn2)O1` [(36)] was tested, and the GI50 [1] was less than 0.05 µM, the IC50 (EGFR^L858R/T790M) was less than 0.05 µM and the GI50 (Ba/F3 EGFR-Del19/C797S) was less than 0.05 µM. For the same molecule, the GI50 (Ba/F3 EGFR-Del19/T790M) was less than 0.05 µM, the IC50 (EGFR^L858R) was less than 0.05 µM and the IC50 (EGFR^L858R/T790M/C797S) was less than 0.05 µM.
`CCOc1nn(C2CC3CCC(C2)N3C)cc1-c1cnc2cc1O[C@@H](C)CCOc1c(cnn1C)-c1nccc(n1)N2` (stereo partly drawn) [(37)] gave a GI50 [1] of less than 0.05 µM, an IC50 (EGFR^L858R/T790M) of less than 0.05 µM and a GI50 (Ba/F3 EGFR-Del19/C797S) of less than 0.05 µM. The GI50 (Ba/F3 EGFR-Del19/T790M) was less than 0.05 µM, the IC50 (EGFR^L858R) was less than 0.05 µM and the IC50 (EGFR^L858R/T790M/C797S) was less than 0.05 µM.
For `CCOc1nn(C2CCN(C3COC3)CC2)cc1-c1cnc2cc1O[C@@H](C)CCOc1c(cnn1C)-c1nccc(n1)N2` [(40)], the GI50 [1] was less than 0.05 µM, the IC50 (EGFR^L858R/T790M) was less than 0.05 µM and the GI50 (Ba/F3 EGFR-Del19/C797S) was less than 0.05 µM. For the same molecule, the GI50 (Ba/F3 EGFR-Del19/T790M) was less than 0.05 µM, the IC50 (EGFR^L858R) was less than 0.05 µM and the IC50 (EGFR^L858R/T790M/C797S) was less than 0.05 µM.
`CCCOc1nn(C2CC2)cc1-c1cnc2cc1O[C@@H](C)CCOc1c(cnn1C)-c1nccc(n1)N2` [(42)] was tested, and the GI50 [1] was less than 0.05 µM, the IC50 (EGFR^L858R/T790M) was less than 0.05 µM and the GI50 (Ba/F3 EGFR-Del19/C797S) was less than 0.05 µM. The GI50 (Ba/F3 EGFR-Del19/T790M) was less than 0.05 µM, the IC50 (EGFR^L858R) was less than 0.05 µM and the IC50 (EGFR^L858R/T790M/C797S) was less than 0.05 µM.
`C[C@H]1CCOc2c(cnn2C)-c2nccc(n2)Nc2cc(c(-c3cn(C4CC4)nc3OCCF)cn2)O1` [(43)] was tested, and the GI50 [1] was less than 0.05 µM, the IC50 (EGFR^L858R/T790M) was less than 0.05 µM and the GI50 (Ba/F3 EGFR-Del19/C797S) was less than 0.05 µM. The GI50 (Ba/F3 EGFR-Del19/T790M) was less than 0.05 µM, the IC50 (EGFR^L858R) was less than 0.05 µM and the IC50 (EGFR^L858R/T790M/C797S) was less than 0.05 µM.
